The source of these data is patent publication US20090305980A1, “Methods and Compositions Related to TR4” (UNIVERSITY OF ROCHESTER, priority 2006, published 2009).

For one assay, the system named is wt MEFs. The assay can be described thus: Cellular ROS levels by flow cytometry in wt MEFs. It is filed as cell-based, mouse. The procedure: (§1) MEFs from wt and TR4 KO were treated with 200 μM H2O2 for 30 min in the presence/absence of 100 nM of α-tocopherol, and the cellular ROS levels were then measured by flow cytometric analysis. The relative ROS levels were calculated by comparing with untreated MEFs from wt and TR4 KO independently.
Replicative senescence has been employed as a cellular model for aging and it occurs primarily in response to oxidative DNA damage (Campisi, J. et al. (2005) Cell, 120: 513-522). Wt MEFs grow well for approximately 2-3 doublings (P2-3) before decreasing in proliferation, and after 8-10 doublings, the cell senescence occurs. In contrast, TR4 KO MEFs proliferation drastically decline after P4 (FIG. 4A). […] The amounts of cellular ROS in MEFs were determined by flow cytometry using DCFH-DA. […] When MEFs were exposed to H2O2 and measured cellular ROS levels, the amounts of fluorescence in both in wt and TR4 KO increased after H2O2 treatment; TR4 KO MEFs accumulated more ROS than wt MEFs. […]
To determine if TR4 is a mediator for non-enzymatic antioxidants, including vitamin C, vitamin E, β-carotene, and selenium, to suppress ROS production in the cells, cellular ROS levels are examined in LMWA-treated MEFs to antagonize oxidative stress. MEFs from TR4 KO and wt are treated with LMWA with/without H2O2 oxidative stress challenge as ROS levels are measured. […]
(In general: In flow cytometry, cells or beads pass a laser one at a time.)

Another assay has as its system TR4 KO MEFs. The assay can be described thus: Cellular ROS levels by flow cytometry in TR4 KO MEFs. It counts as cell-based, mouse. The procedure:
as §1
Replicative senescence has been employed as a cellular model for aging and it occurs primarily in response to oxidative DNA damage (Campisi, J. et al. (2005) Cell, 120: 513-522). Wt MEFs grow well for approximately 2-3 doublings (P2-3) before decreasing in proliferation, and after 8-10 doublings, the cell senescence occurs. In contrast, TR4 KO MEFs proliferation drastically decline after P4 (FIG. 4A). ROS contribute to cells senescence, and how cells respond to oxidative stress would determine the life span. The amounts of cellular ROS in MEFs were determined by flow cytometry using DCFH-DA. […] When MEFs were exposed to H2O2 and measured cellular ROS levels, the amounts of fluorescence in both in wt and TR4 KO increased after H2O2 treatment; TR4 KO MEFs accumulated more ROS than wt MEFs.
To test if TR4 is involved in low molecular weight antioxidant (LMWA), such as vitamin E anti-oxidant effects, fibroblasts from TR4 KO and wt were challenged with 250 μM H2O2 in the presence of 100 nM α-tocopherol and VES.
To determine if TR4 is a mediator for non-enzymatic antioxidants, including vitamin C, vitamin E, β-carotene, and selenium, to suppress ROS production in the cells, cellular ROS levels are examined in LMWA-treated MEFs to antagonize oxidative stress. MEFs from TR4 KO and wt are treated with LMWA with/without H2O2 oxidative stress challenge as ROS levels are measured. The ones that lose its anti-oxidant activity in KO MEFs but not wt MEFs are the candidates. […] Therefore, TR4 is mediated by some LMWAs, such as vitamin E, to suppress cellular ROS production. Herein, the anti-ROS effects are compared on TR4 KO vs wt MEFs in response to other LMWAs. The focus is on how TR4 regulates vitamin E and the other LMWA that lost anti-ROS response in TR4 KO MEFs.

Turning to `Cc1c(C)c2c(c(C)c1O)CC[C@@](C)(CCC[C@H](C)CCC[C@H](C)CCCC(C)C)O2` [vitamin E, α-tocopherol], the “intrinsic and exogenous ROS production” value is on record as “can reduce” in the assay on wt MEFs (wt MEFs, 10^−7 M vitamin E) and “not” in the assay with TR4 KO MEFs (KO MEFs, 10^−7 M vitamin E). The “ROS (vitamin E-mediated anti-oxidant effect)” value with wt MEFs (wt fibroblasts, 250 μM H2O2, 100 nM α-tocopherol and VES) is on record as “reduction of ROS”; in the assay on TR4 KO MEFs (TR4 KO fibroblasts, 250 μM H2O2, 100 nM α-tocopherol and VES) it was “lost the vitamin E-mediated anti-oxidant effect”. For the same compound, the “vitamin E anti-ROS effects (relative ROS levels)” value in the assay on TR4 KO MEFs (TR4KO MEFs, 200 μM H2O2 for 30 min, 100 nM α-tocopherol) is “loss of vitamin E anti-ROS effects”.
